Columns and labels:
[1] = system: human colon fibroblast cells CCD-18Co; experiment: in vitro; format: cell-based
Experimental: Growth inhibition of human cancer and normal cells. Cell growth inhibition was determined by a MTT colorimetric assay. Human colon cancer cells HCT-116, human lung cancer cells H-1299, human colon fibroblast cells CCD-18Co, and human lung fibroblast cells IMR-90 were plated in 96-well microtiter plates with 3000 cells/well and allowed to attach for 24 h at 37° C. […] After the cells were cultured for 48 h, the medium was aspirated and cells were treated with 200 μL fresh medium containing 2.41 mmol/L MTT. […] The reading reflected the number of viable cells and was expressed as a percentage of viable cells in the control. Both HCT-116 and H-1299 cells were cultured in McCoy's 5A medium. CCD-18Co and IMR-90 cells were cultured in Eagle's modified essential medium (EMEM). All of the above media were supplemented with 10% fetal bovine serum, 1% penicillin/streptomycin, and 1% glutamine, and the cells were kept in a 37° C. incubator with 95% humidity and 5% CO2.

HT-29 colon cancer cells = experiment: Apoptosis by FACS analysis of propidium iodide-stained cells; format: cell-based, human; conditions: HT-29, 40 μM, 24 hours
Experimental: (§1) Apoptosis was determined by FACS analysis of propidium iodide (PI)-stained cells. In brief, cells were trypsinized, washed with cold phosphate-buffered saline (PBS), fixed in ice-cold 70% ethanol for 1 hour, and then resuspended in 2 mL PBS supplemented with 10 μL RNase (100 mg/ml) and incubated at 37° C. for 30 min. After incubation, DNA was stained with 1 mg/mL PI in PBS. Cell staining was analyzed using a Cell Lab Quanta™ SC flow cytometer (Beckman Coulter, Danvers, Mass.) and data were processed using FCS Express software (DeNovo Software, Los Angeles, Calif.). The percentage of apoptotic cells in each sample was determined based on the sub G0 peaks detected in monoparametric histograms.

[2] = system: HCT-116 colon cancer cells; experiment: as above; format: cell-based, human; conditions: HCT-116, 40 μM, 24 hours
Experimental: as §1

[3] = Kinetic study of [6]-shogaol metabolism to M6 in liver microsomes; format: in vitro ADME, monkey; conditions: monkey liver microsomes 0.1 mg/mL, 30 min
Experimental: (§2) All incubations were performed in triplicate.

[4] = system: human lung cancer cells H-1299; experiment: MTT growth inhibition by M14 and M15 (Part 3); format: cell-based; conditions: H-1299, 24 hours, 0 to 80 μM; read-out: IC50 (cell viability, MTT)
Experimental: (§3) Cell growth inhibition was determined by a MTT colorimetric assay. […] The reading reflected the number of viable cells and was expressed as a percentage of viable cells in the control. Both HCT-116 and H-1299 cells were cultured in McCoy's 5A medium. All of the above media were supplemented with 10% fetal bovine serum, 1% penicillin/streptomycin, and 1% glutamine, and the cells were kept in a 37° C. incubator with 95% humidity and 5% CO2.

[5] = system: human colon cancer cells HCT-116; experiment: MTT growth inhibition by M14 and M15 (Part 3); format: cell-based; conditions: HCT-116, 24 hours, 0 to 80 μM; read-out: IC50 (cell viability, MTT)
Experimental: as §3

[6] = Kinetic study of [6]-shogaol metabolism to M6 in liver microsomes; format: in vitro ADME, rat; conditions: rat liver microsomes 0.1 mg/mL, 30 min
Experimental: as §2

[7] = system: human lung cancer cells H-1299; experiment: Cell Death Detection ELISA apoptosis induction (Part 3); format: cell-based; conditions: H-1299, 10 μM, 24 hours
Experimental: (§4) Human colon cancer cells HCT-116 and human lung cancer cells H-1299 were plated in 96-well plates at a density of 5000 cells/well and allowed to attach overnight at 37° C. M14, M15, or [6]-shogaol in DMSO, or DMSO control, diluted in media, were added to cells and incubated for an additional 24 hours at 37° C. After 24 hours, media containing compound was removed and cells were lysed in their respective wells with reagents from a Cell Death Detection ELISA^PLUS kit from Roche Applied Science (Mannheim, Germany). Samples were harvested after cell lysates were spun down at 300 g for 10 minutes. To streptavidin coated microplates, 20 μL samples were added, and mixed with 80 μL Immunoreagent, which consisted of anti-histone-biotin, and anti-DNA-POD, and incubated with gentle shaking for 2 hours at room temperature. After incubation, Immunoreagent was removed and samples were washed 3 times with 250 μL incubation buffer. Substrate solution, ABTS, was added to each well and color was developed for 15 minutes before stopping the reaction with ABTS stop solution and reading absorbance on a microplate reader at 430 nm. Experiments were performed in triplicate and the average is given in comparison to DMSO control with standard deviation.

[8] = system: human colon cancer cells HCT-116; experiment: as above; format: cell-based; conditions: HCT-116, 10 μM, 24 hours
Experimental: as §4

[9] = system: HCT-116, HT-29, H-1299, and CL-13 cancer cell lines; experiment: Metabolism of [6]-shogaol in cancer cells; format: in vitro ADME; conditions: 10 μM, HCT-116, HT-29, H-1299, CL-13, up to 24 h
Experimental: Cells (1.0×10^6) were plated in six-well culture plates and were allowed to attach for 24 h at 37° C. in 5% CO2 incubator. [6]-Shogaol [in dimethyl sulfoxide (DMSO)] was added to McCoy's 5A medium (containing 10% fetal bovine serum, 1% penicillin/streptomycin, and 1% glutamine) to reach a final concentration of (10 μM) and was incubated with different cancer cell lines (HCT-116, HT-29, H-1299, and CL-13). At different time points (0, 30 min, 1, 2, 4, 6, 8, and 24 h), 190-μl samples of supernatant were taken and transferred to vials containing (10 μl) of 0.2% ascorbic acid to stabilize [6]-shogaol and its metabolites. The metabolites were extracted from media by addition of equal volume of acetonitrile and centrifugation, in which the supernatant was harvested. The samples were then diluted 5-fold in acetonitrile and were analyzed by HPLC ECD.

Km ([3]; read-out: Km of M6 formation) [µM]	IC50 [4] [µM]	IC50 [5] [µM]	metabolism in cancer cell lines [9]	Compound	IC50 [1] [µM]	apoptotic cells (FACS, PI) (HT-29 colon cancer cells) [%]	apoptotic cells (FACS, PI) [2] [%]	Vmax of M6 formation [3]	Vmax of M6 formation [6]	induction of apoptosis compared to DMSO control [7] [fold]	induction of apoptosis compared to DMSO control [8] [fold]
–	–	–	–	CCCCCC(CC(=O)CCc1ccc(O)c(OC)c1)SC[C@H](N)C(=O)O (stereo partly drawn) [M2, 5-cysteinyl-[6]-shogaol]	99.2	14.38	26.34	–	–	–	–
424	17.3	19.9	extensively metabolized	CCCCC/C=C/C(=O)CCc1ccc(O)c(OC)c1 [[6]-shogaol, reference compound]	43.9	–	–	2.99+/−0.28 nanomoles per minute per milli	8.19+/−0.48 nanomoles per minute per milli	~2	1

Reference: patent US9549911B2, “Ginger metabolites and uses thereof” (North Carolina A&T State University, priority 2012, dated 2017)
